Results reported in US20050181066A1, “Novel use of guanylate cyclase activators for the treatment of respiratory insufficiency” (Altana Pharma AG, priority 2002, published 2005).
“Also recorded” adds a separate entry of the source.

Columns and labels:
[1] = system: anaesthetized and ventilated rabbit with oleic acid-induced lung damage; assay: Whole animal model of acute pulmonary hypertension with severe gas exchange impairment through oleic acid (MIGET, haemodynamics); assay type: in vivo; conditions: for effect on pulmonary arterial pressure (FIG. 2) / effect on systemic arterial pressure (FIG. 3): NO 10, 34, 70, 120, 200 ppm by inhalation, YC-1 5 mg infusion over 10 min; for effect on pulmonary arterial pressure (FIG. 2) / effect on systemic arterial pressure (FIG. 3) / effect on arterial oxygenation / oxygenation index (FIG. 6) / effect on intrapulmonary shunting (MIGET, FIG. 5) / effect on perfusion of normally ventilated areas of the lung (normal V/Q, MIGET, FIG. 7) / effect on pulmonary arterial pressure (FIG. 4): n=6; for effect on arterial oxygenation / oxygenation index (FIG. 6): 150 min after oleic acid injection; for intrapulmonary shunting (MIGET): oleic acid (OA) group 33±2 %; for arterial oxygenation: oleic acid (OA) group 123±13 mmHg; for effect on intrapulmonary shunting (MIGET, FIG. 5) / effect on perfusion of normally ventilated areas of the lung (normal V/Q, MIGET, FIG. 7) / effect on pulmonary arterial pressure (FIG. 4): YC-1 5 mg infusion 30-40 min after oleic acid
Experimental: Whole Animal Model of Acute Pulmonary Hypertension with Severe Gas Exchange Impairment Through Infusion of Oleic Acid
The test animals In the rabbit model were anaesthetized by injection of about 700 μl of a mixture of Ketanest and Rompun in the ratio 3:2. The spontaneous breathing of the animal was maintained with this initial anaesthesia. 1 000 I.U. of heparin per kg of bodyweight were injected for anticoagulation. For the intubation, 7 ml of Xylocaine were injected into the subcutaneous tissue of the animal's neck. A tube was introduced into the trachea underneath the larynx and was used from this instant onwards for ventilation of the animal through the ventilation pump (breathing rate: […], tidal volume 35 ml). The animal underwent standard ventilation with a 50% N2 and a 50% O2 gas mixture. 7 ml/h of the anaesthetic mixture were administered through a Perfusor, which led to a deep analgesia and relaxation of the animal. The left common carotid artery was ligated and punctured for measurement of the arterial pressure. […] Through this port, a 4F balloon catheter was placed in the right ventricle and the right ventricular pressure was recorded. The gas exchange was analysed by the multiple inert gas elimination technique (MIGET). The MIGET is based on elimination and retention of a plurality of inert gases. Central venous infusion thereof in dissolved form into the animal via the ear margin vein was therefore necessary. This infusion solution was prepared by introducing 250 ml of the perfusate without air bubbles into a gas-tight bag. 0.5 ml of liquid halothane was put into this bag through an injection plug. The bag was then filled with a test gas mixture (10% SF6 3.0, 20% cyclopropane 2.0 and 70% ethane 2.5) and the gases were dissolved in the perfusate. 0.15 ml of diethyl ether was injected, followed by 0.7 ml of acetone. This solution was infused continuously at 30 ml/h into the animal during the equilibration period after change of the perfusate. An equilibrium between retention and elimination of the gases was set up within a period of 30-40 min. After this time, 2.5 ml samples were taken simultaneously from the arterial and venous blood by gas-tight 50 ml glass syringes (B-D Yale, Becton, Dickinson & Co, USA). The arterial and the venous sample was then weighed, blanketed with 15 ml of nitrogen gas (ECD grade) and incubated at 38° C. in a shaking water bath (135 min^−1). During this time, an equilibrium, depending on the solubility of the gas, was set up between the gaseous and liquid phase. After the equilibration time had elapsed, the total volume of the syringe was determined and the supernatant gas was transferred into an air-tight 30 ml glass syringe (B-D Yale, Becton, Dickinson & Co, USA) preheated to 38° C. The latter was stored at 38° C. and used for gas chromatographic analysis. Immediately after removal of the arterial and venous perfusate, a sample of the expired air from the isolated lung was taken by a preheated 30 ml glass syringe on an expiratory gas mixing box. This gaseous sample was analysed immediately in a gas chromatograph. The gases were analysed by a computer-assisted calculation through which essentially the following parameters were calculated: shunting (perfusion, unventilated regions of the lung), normal V/Q (perfusion in normally ventilated regions of the lung).
Besides the MIGET data, the following haemodynamic parameters were determined: • pulmonary arterial pressure • systemic arterial pressure • arterial oxygen partial pressure (pO2)
Catheterization of the animal was followed by injection of 50 μg of oleic acid (OA) into the pulmonary artery. The pulmonary arterial pressure rose after this injection from 11-13 mmHg to a stable plateau of 17-18 mmHg. This rise in the pulmonary arterial pressure was accompanied by severe gas exchange impairment essentially characterized by a fall in the arterial oxygenation and a rise in the shunt perfusion (measured by the MIGET). […]

[2] = system: ventilated patients suffering from acute adult respiratory distress syndrome (ARDS); conditions: inhaled; cited from earlier work
isolated rabbit lung = assay: Isolated, bloodlessly perfused and ventilated rabbit lung with U46619-induced acute pulmonary hypertension; conditions: for effect on pulmonary arterial pressure (FIG. 1): U46619-induced pulmonary hypertension, NO 10, 50, 100, 200 ppm cumulatively by inhalation, YC-1 0.1 μM, enhancement at 50, 100, 200 ppm NO, n=6
Experimental: Model of the Isolated, Bloodlessly Perfused and Ventilated Rabbit Lung
The test animal was anaesthetized by injection of about 700 μl of a mixture of Ketanest and Rompun in the ratio 3:2. The spontaneous breathing of the animal was maintained with this initial anaesthesia. 1 000 I.U. of heparin per kg of bodyweight were injected through the venous access for anticoagulation. For the intubation, 7 ml of Xylocaine were injected into the subcutaneous tissue of the animal's neck. A tube was introduced into the trachea underneath the larynx and was used from this instant onwards to ventilate the animal with ambient air through the ventilating pump (breathing rate: […], tidal volume 30 ml). About 3 ml of the anaesthetic mixture were administered over a period of 15 min. The lungs were then removed by a standard technique; likewise dissection of the pulmonary artery and the ascending aorta.
To make it possible to remove the lung from the body's own perfusion without interruption, the pulmonary artery catheter of the perfusion system was, after incision of the right ventricle, advanced into the pulmonary artery and fixed there by means of the open ligature. After cutting off the apex of the heart and closing the ascending aorta, the lung was artificially perfused with Krebs-Henseleit buffer cooled to 4° C. (the cooling served to reduce metabolism) at 20 ml/min. The ambient air was replaced by a 5% CO2, 15% O2 and 80% N2 gas mixture.
The lung was dissected out of the thorax, and a connector was sutured into the left heart to allow the perfusion circulation to be completed. The lung was suspended on a weighing cell and the perfusion circulation was completed through the connector. The lung perfusate then flowed out through a pressure cascade. The temperature of the complete system was raised to 38° C. and the pressure recording started. In the system, the pulmonary artery pressure, the left ventricular pressure, the ventilation pressure and the weight were recorded continuously. […]

[3] = system: patients with post-traumatic pulmonary dysfunction; conditions: infusion; 11 patients; cited from earlier work
[4] = system: rabbit model of acute pulmonary hypertension; conditions: cited from earlier work; for effect on pulmonary hypertension / pulmonary and systemic vasodilatation: systemic (intravenous) administration, in the combination a dose of dipyridamole with no activity per se
[5] = system: patients with bronchial asthma; conditions: intravenous administration; cited from earlier work
[6] = NO 100 ppm inhaled 30-150 min, YC-1 5 mg infusion 30-40 min

## [N]=O [NO, nitric oxide]
[1]; 50 μg oleic acid
  effect on pulmonary arterial pressure (FIG. 2): dose-dependent reduction in the pulmonary arterial pressure
  effect on systemic arterial pressure (FIG. 3): remained unchanged; also recorded: did not lead to a dose-dependent reduction in the systemic arterial pressure
[1]; [6]
  effect on arterial oxygenation / oxygenation index (FIG. 6): significant increase in the arterial oxygenation
  intrapulmonary shunting (MIGET): 23±3%
  arterial oxygenation: 234±21 mmHg
[1]; NO 100 ppm inhaled 30-150 min, YC-1 5 mg infusion 30-40 min, oleic acid (OA) group 17.8±1.6 mmHg
  pulmonary arterial pressure: 14.5±1.8 mmHg
[1]; NO 100 ppm inhaled 30-150 min
  effect on intrapulmonary shunting (MIGET, FIG. 5): reduction in the intrapulmonary shunting
  effect on perfusion of normally ventilated areas of the lung (normal V/Q, MIGET, FIG. 7): significant increase in the perfusion of normally ventilated areas of the lung
  effect on pulmonary arterial pressure (FIG. 4): reduction in the pulmonary arterial pressure
[2]
  effect on gas exchange: improvement in gas exchange
Isolated rabbit lung
  effect on pulmonary arterial pressure (FIG. 1): dose-dependent reduction in the pulmonary arterial pressure

## O=[N+]([O-])OCC(CO[N+](=O)[O-])O[N+](=O)[O-] [Ng, 1,2,3-propanetriyl trinitrate]
[3]
  effect on acute pulmonary hypertension: reduction in the acute pulmonary hypertension
  effect on arterial oxygen content: deterioration in the arterial oxygen content

## CCCCC[C@H](O)/C=C/[C@@H]1[C@@H](C/C=C\CCCC(=O)O)[C@H]2CO[C@@H]1C2 [U46619]
Isolated rabbit lung; continuous intravascular 70 to 160 pmol/kg min U46619, raised from 6-8 mmHg
  pulmonary arterial pressure raised by U46619: 33-35 mmHg

## OCc1ccc(-c2nn(Cc3ccccc3)c3ccccc23)o1 [YC-1, 3-(5′-Hydroxymethyl-2′-furyl)-1-benzyl indazole]
[1]; 50 μg oleic acid
  effect on pulmonary arterial pressure (FIG. 2): no effect on the measured parameters
  effect on systemic arterial pressure (FIG. 3): no effect on the measured parameters
[1]; [6]
  effect on arterial oxygenation / oxygenation index (FIG. 6): significant effect on the oxygenation index
  intrapulmonary shunting (MIGET): 21±4%
  arterial oxygenation: 215±8 mmHg
[1]; NO 100 ppm inhaled 30-150 min
  effect on intrapulmonary shunting (MIGET, FIG. 5): no significant effect on intrapulmonary shunting
  effect on perfusion of normally ventilated areas of the lung (normal V/Q, MIGET, FIG. 7): no significant effect on the perfusion of normally ventilated areas of the lung
  effect on pulmonary arterial pressure (FIG. 4): no effect on the pulmonary arterial pressure
Isolated rabbit lung
  effect on pulmonary arterial pressure (FIG. 1): no intrinsic effect on the pulmonary arterial pressure

## OCCN(CCO)c1nc(N2CCCCC2)c2nc(N(CCO)CCO)nc(N3CCCCC3)c2n1 [dipyridamole]
[4]
  effect on pulmonary hypertension / pulmonary and systemic vasodilatation: dose-dependent reduction in the pulmonary and systemic vasodilatation

## CCCCCCCC/C=C\CCCCCCCC(=O)O [oleic acid]
[1]; 50 μg oleic acid
  intrapulmonary shunting after oleic acid injection: 30-35%
[1]; 50 μg oleic acid into the pulmonary artery, rise from 11-13 mmHg
  pulmonary arterial pressure plateau after oleic acid injection: 17-18 mmHg

## urodilatin
[4]; intravenous administration
  effect on pressure in the systemic circulation: reduces the pressure in the systemic circulation to the same extent
[4]
  effect on pulmonary hypertension / pulmonary and systemic vasodilatation: dose-dependent reduction in the pulmonary and systemic vasodilatation; also recorded: marked reduction in pulmonary hypertension
[5]
  effect on ventilatory parameters: improvement in the ventilatory parameters
